Each compound was assayed against T1, cloned human V1a receptor (Homo sapiens, UniProt P37288) (assay: in vitro functional calcium mobilisation assay (FLIPR), antagonist activity, 1321N1 cells, 250 pM AVP). Settings: functional pKi derived from pIC50 (Equation 1), FLIPR Ca2+ mobilisation, 1321N1 cells expressing cloned human V1a receptor, read-out: Mean fpKi (Human V1a) (converted).
T1 construct: host or cells: human brain astrocytoma 1321N1 cells
Type: cell-based
Protocol: The primary assay which may be used to determine the ability of the compounds of formula (1) to inhibit the vasopressin V1a receptor is an in vitro functional calcium mobilisation assay (FLIPR) that measures antagonist activity at a cloned human V1a receptor. The assay is described below.
The antagonist activity of compounds of formula (1) were determined in a Calcium (Ca2+) mobilisation assay using whole cells (human brain astrocytoma 1321N1 cells, ex Perkin Elmer) genetically modified to stably express a cloned human V1a receptor. Dose response curves were determined by displacement of a single concentration of agonist (250 pM AVP, ex Sigma) with increasing concentrations of compound. A pIC50 value is determined by non-linear regression to a 4-parameter logistic equation and a functional pKi (fpKi) derived using Equation 1.
where A=agonist single conc, and A50=the agonist EC50.

T1 sequence (P37288 whole entry): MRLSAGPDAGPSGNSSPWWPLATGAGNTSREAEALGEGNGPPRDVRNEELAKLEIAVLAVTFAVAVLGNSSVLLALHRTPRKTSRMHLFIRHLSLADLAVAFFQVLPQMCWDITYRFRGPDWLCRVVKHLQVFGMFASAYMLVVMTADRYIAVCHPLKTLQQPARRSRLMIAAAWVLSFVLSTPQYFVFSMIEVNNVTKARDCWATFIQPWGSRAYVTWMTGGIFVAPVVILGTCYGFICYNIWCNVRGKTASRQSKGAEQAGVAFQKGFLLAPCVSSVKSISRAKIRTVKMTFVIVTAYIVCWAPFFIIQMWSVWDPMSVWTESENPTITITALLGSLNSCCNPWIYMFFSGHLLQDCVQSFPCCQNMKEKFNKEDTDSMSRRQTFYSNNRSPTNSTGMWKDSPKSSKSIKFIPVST

Row | SMILES | Ki [nM]
1 | Cn1ncc2c1Nc1cc(Cl)ccc1N(C(=O)C1CCN(c3ccccn3)CC1)C2 [Example 115] | 6.92
2 | Cc1cccnc1N1CCC(C(=O)N2Cc3cnn(C)c3Nc3cc(Cl)ccc32)CC1 [Example 116] | 2.69
3 | Cc1ccnc(N2CCC(C(=O)N3Cc4cnn(C)c4Nc4cc(Cl)ccc43)CC2)c1 [Example 117] | 2
4 | Cc1ccc(N2CCC(C(=O)N3Cc4cnn(C)c4Nc4cc(Cl)ccc43)CC2)nc1 [Example 118] | 1.74
5 | COc1cccnc1N1CCC(C(=O)N2Cc3cnn(C)c3Nc3cc(Cl)ccc32)CC1 [Example 119] | 19.1
6 | CCn1ncc2c1Nc1cc(Cl)ccc1N(C(=O)C1CCN(c3ncccc3C)CC1)C2 [Example 120] | 0.912
7 | CCn1ncc2c1Nc1cc(Cl)ccc1N(C(=O)C1CCN(c3cc(C)ccn3)CC1)C2 [Example 121] | 0.427
8 | CCn1ncc2c1Nc1cc(Cl)ccc1N(C(=O)C1CCN(c3ccc(C)cn3)CC1)C2 [Example 122] | 0.603
9 | Cc1ccc(N2CCC(C(=O)N3Cc4cnn(-c5ccccc5)c4Nc4cc(Cl)ccc43)CC2)nc1 [Example 123] | 2
10 | Cc1ccc2c(c1)Nc1c(cnn1C)CN2C(=O)C1CCN(c2cccc(C)n2)CC1 [Example 124] | 9.55
11 | Cc1cccc(N2CCC(C(=O)N3Cc4cnn(C)c4Nc4cc(Cl)ccc43)CC2)n1 [Example 125] | 5.89
12 | CCn1ncc2c1Nc1cc(Cl)ccc1N(C(=O)C1CCN(c3cccc(C)n3)CC1)C2 [Example 126] | 1.2
13 | Cc1ccc2c(c1)Nc1c(cnn1C)CN2C(=O)C1CCN(c2ccccc2F)CC1 [Example 127] | 2
14 | Cc1cccc(N2CCC(C(=O)N3Cc4cnn(C)c4Nc4cc(C)ccc43)CC2)c1 [Example 128] | 1.32
15 | Cc1ccc(N2CCC(C(=O)N3Cc4cnn(C)c4Nc4cc(C)ccc43)CC2)cc1 [Example 129] | 0.324
16 | COc1ccc(N2CCC(C(=O)N3Cc4cnn(C)c4Nc4cc(C)ccc43)CC2)cc1 [Example 131] | 3.09
17 | CCc1ccc(N2CCC(C(=O)N3Cc4cnn(C)c4Nc4cc(C)ccc43)CC2)cc1 [Example 132] | 0.741
18 | Cc1ccc2c(c1)Nc1c(cnn1C)CN2C(=O)C1CCN(c2ccc(C(F)(F)F)cc2)CC1 [Example 133] | 5.37
19 | Cn1ncc2c1Nc1cc(Cl)ccc1N(C(=O)C1CCN(c3ccccc3F)CC1)C2 [Example 134] | 1.74
20 | Cc1cccc(N2CCC(C(=O)N3Cc4cnn(C)c4Nc4cc(Cl)ccc43)CC2)c1 [Example 135] | 1.29

Row | SMILES | Ki [nM]
21 | Cc1ccc(N2CCC(C(=O)N3Cc4cnn(C)c4Nc4cc(Cl)ccc43)CC2)cc1 [Example 136] | 0.617
22 | COc1cccc(N2CCC(C(=O)N3Cc4cnn(C)c4Nc4cc(Cl)ccc43)CC2)c1 [Example 137] | 1.78
23 | COc1ccc(N2CCC(C(=O)N3Cc4cnn(C)c4Nc4cc(Cl)ccc43)CC2)cc1 [Example 138] | 2.63
24 | CCc1ccc(N2CCC(C(=O)N3Cc4cnn(C)c4Nc4cc(Cl)ccc43)CC2)cc1 [Example 139] | 0.912
25 | Cn1ncc2c1Nc1cc(Cl)ccc1N(C(=O)C1CCN(c3ccc(C(F)(F)F)cc3)CC1)C2 [Example 140] | 8.51
26 | Cc1ccc2c(c1)Nc1c(cnn1C)CN2C(=O)C1CCN(c2ccc(C)nc2)CC1 [Example 141] | 5.13
27 | Cc1ccc(N2CCC(C(=O)N3Cc4cnn(C)c4Nc4cc(Cl)ccc43)CC2)cn1 [Example 142] | 2.88
28 | O=C(C1CCN(c2ncccn2)CC1)N1Cc2cccn2Cc2ccccc21 [Example 143] | 117
29 | O=C(C1CCN(c2ccccn2)CC1)N1Cc2cccn2Cc2ccccc21 [Example 144] | 3.16
30 | Cc1ccc(N2CCC(C(=O)N3Cc4cccn4Cc4ccccc43)CC2)nc1 [Example 145] | 15.1
31 | O=C(C1CCN(c2cccnc2)CC1)N1Cc2cccn2Cc2ccccc21 [Example 146] | 31.6
32 | O=C(C1CCN(c2ccncc2)CC1)N1Cc2cccn2Cc2ccccc21 [Example 147] | 1480
33 | O=C(C1CCN(c2cnccn2)CC1)N1Cc2cccn2Cc2ccccc21 [Example 148] | 28.2
34 | O=C(C1CCN(c2ccccc2)CC1)N1Cc2cccn2Cc2ccccc21 [Example 149] | 0.589
35 | O=C(C1CCN(c2ccccn2)CC1)N1Cc2cccn2Cc2cc(F)ccc21 [Example 150] | 1.91
36 | O=C(C1CCN(c2ccccc2)CC1)N1Cc2cccn2Cc2cc(F)ccc21 [Example 151] | 0.794
37 | Cc1ccc2c(c1)Cn1cccc1CN2C(=O)C1CCN(c2ccccn2)CC1 [Example 152] | 0.631
38 | Cc1ccc2c(c1)Cn1cccc1CN2C(=O)C1CCN(c2ccccc2)CC1 [Example 153] | 0.234
39 | O=C(C1CCN(c2ccccc2F)CC1)N1Cc2cccn2Cc2ccccc21 [Example 154] | 1.48
40 | O=C(C1CCN(c2cccc(F)c2)CC1)N1Cc2cccn2Cc2ccccc21 [Example 155] | 4.57

Row | SMILES | Ki [nM]
41 | O=C(C1CCN(c2ccc(F)cc2)CC1)N1Cc2cccn2Cc2ccccc21 [Example 156] | 1.45
42 | O=C(C1CCN(c2ccccc2Cl)CC1)N1Cc2cccn2Cc2ccccc21 [Example 157] | 7.59
43 | O=C(C1CCN(c2ccc(Cl)cc2)CC1)N1Cc2cccn2Cc2ccccc21 [Example 158] | 4.79
44 | Cc1ccccc1N1CCC(C(=O)N2Cc3cccn3Cc3ccccc32)CC1 [Example 159] | 10.5
45 | Cc1cccc(N2CCC(C(=O)N3Cc4cccn4Cc4ccccc43)CC2)c1 [Example 160] | 3.16
46 | Cc1ccc(N2CCC(C(=O)N3Cc4cccn4Cc4ccccc43)CC2)cc1 [Example 161] | 1.12
47 | COc1ccccc1N1CCC(C(=O)N2Cc3cccn3Cc3ccccc32)CC1 [Example 162] | 3.16
48 | COc1cccc(N2CCC(C(=O)N3Cc4cccn4Cc4ccccc43)CC2)c1 [Example 163] | 5.62
49 | COc1ccc(N2CCC(C(=O)N3Cc4cccn4Cc4ccccc43)CC2)cc1 [Example 164] | 14.1
50 | CCc1ccc(N2CCC(C(=O)N3Cc4cccn4Cc4ccccc43)CC2)cc1 [Example 165] | 1.55
51 | CCCc1ccc(N2CCC(C(=O)N3Cc4cccn4Cc4ccccc43)CC2)cc1 [Example 166] | 3.89
52 | CC(C)c1ccc(N2CCC(C(=O)N3Cc4cccn4Cc4ccccc43)CC2)cc1 [Example 167] | 3.63
53 | O=C(C1CCN(c2cccc(-c3ccccc3)c2)CC1)N1Cc2cccn2Cc2ccccc21 [Example 168] | 151
54 | O=C(C1CCN(c2ccc(C(F)(F)F)cc2)CC1)N1Cc2cccn2Cc2ccccc21 [Example 169] | 30.9
55 | N#Cc1cccc(N2CCC(C(=O)N3Cc4cccn4Cc4ccccc43)CC2)c1 [Example 170] | 25.7
56 | N#Cc1ccc(N2CCC(C(=O)N3Cc4cccn4Cc4ccccc43)CC2)cc1 [Example 171] | 214
57 | O=C(C1CCN(c2cccc([N+](=O)[O-])c2)CC1)N1Cc2cccn2Cc2ccccc21 [Example 173] | 17
58 | O=C(C1CCN(c2ccc([N+](=O)[O-])cc2)CC1)N1Cc2cccn2Cc2ccccc21 [Example 174] | 162
59 | Nc1ccccc1N1CCC(C(=O)N2Cc3cccn3Cc3ccccc32)CC1 [Example 175, [1-(2-Amino-phenyl)-piperidin-4-yl]-(5H,11H-benzo[e]pyrrolo[1,2-a][1,4]diazepin-10-yl)-methanone] | 3.98
60 | Nc1ccc(N2CCC(C(=O)N3Cc4cccn4Cc4ccccc43)CC2)cc1 [Example 176] | 2.51
